Measurements as given in patent US11999759B2, “Boronic acid derivatives and therapeutic uses thereof” (Qpex Biopharma, Inc., priority 2016, dated 2024).

Columns and labels:
[1] = Stability of compound 13 prodrugs in human serum; format: in vitro ADME; details: 37° C., prodrug 50.0 μg/mL
Experimental: The rate of hydrolysis for several prodrugs of 13 was evaluated in vitro by measuring their stability in human serum and human liver microsomes. All serum stability experiments were conducted by aliquoting 10 μL of test compound at 500 μg/mL (10× final concentration) in 95:5 water:acetonitrile v/v into 1.5 mL Eppendorf tubes. […] The tubes were then warmed to 37° C. in a water bath along with human serum (Bioreclamations) in a separate tube. Serum esterase activity for each lot of serum used was established by assaying an unrelated ester prodrug as a control. To initiate the reaction, 90 μL of serum was added to tubes for all timepoints using a repeating-tip pipette, thereby bringing the final concentration of test compound to 50 μg/mL and the final concentration of acetonitrile to 0.5% v/v. At each timepoint, the reaction was halted and serum proteins precipitated through the addition of an equal volume of cold acetonitrile containing 25 μg/mL diclofenac as an internal standard. […] Sample analysis for serum stability experiments was conducted using an Agilent 1100 binary pump HPLC equipped with a diode array detector set to monitor absorbance at 286 nm (8 nm bandwidth). […] The samples were analyzed together with appropriate blanks in order to ensure specificity. […] The rate of activation was determined by monitoring the concentration of test compound as follows. The peak area for the analyte was divided by the peak area for the internal standard to give an area ratio. The area ratio for each timepoint was divided by the area ratio for timepoint 0 to give the percent remaining at each timepoint. The natural logarithm of the percent remaining versus time was plotted using Microsoft Excel and fitted to a linear trendline.

[2] = Stability of compound 13 prodrugs in human liver microsomes (HLM); format: in vitro ADME; details: 0.500 mg/mL human liver microsomes, no cofactors, prodrug 1.00 μM; for half-life at 1 μM: pH 7.4, read-out: Estimated half-life (minutes) (rounded to nearest integer value)
Experimental: In the meantime, a 20.0 mg/mL solution of human liver microsomes (XenoTech, LLC) was diluted to 1.00 mg/mL (2× final concentration). Esterase activity for each lot of microsomes used was established by assaying an unrelated ester prodrug as a control. Both the Eppendorfs for each timepoint and the diluted liver microsomes were then warmed to 37° C. in a water bath. No cofactors (e.g. NADPH) were added to ensure that only hydrolytic reactions as opposed to reactions mediated by other cofactor-dependent enzymes (e.g. CYP450 enzymes) would take place. To initiate the reaction, 50 μL of diluted human liver microsomes was added to tubes for all timepoints using a repeating-tip pipette, thereby bringing the final concentration of test compound to 1.00 μM and the final concentration of human liver microsomes to 0.500 mg/mL. At each timepoint, the reaction was halted and proteins precipitated through the addition of 200 μL of 10:45:45 water:methanol:acetonitrile v/v/v containing an unrelated ester prodrug at 250 ng/mL as an internal standard. […] Sample analysis for microsome stability experiments was conducted using a 20.0 μL injection on a LEAP PAL autosampler with Agilent 1100 binary pump HPLC coupled to an AB Sciex 3200 QTrap mass spectrometer. […] Detection was in positive mode; source parameters and parent-daughter ion selection criteria were chosen as needed for each compound to achieve an appropriate limit of detection and signal-to-noise ratio. The samples were analyzed together with appropriate blanks in order to ensure specificity. The rate of hydrolysis for each prodrug was determined by monitoring the concentration of test compound as follows. The peak area for the analyte was divided by the peak area for the internal standard to give an area ratio. The area ratio for each of the two replicates at each timepoint was divided by the area ratio for timepoint 0 to give the percent remaining at each timepoint. The natural logarithm of the percent remaining versus time for all replicates was plotted using Microsoft Excel and fitted to a linear trendline.

OXA-23 = OXA-23 (Acinetobacter baumannii, UniProt Q9L4P2); test: Inhibition of nitrocefin cleavage by purified OXA-23; format: biochemical; details: nitrocefin reporter substrate; 10 min preincubation at room temperature; read-out: Ki (OXA-23, NCF)
Experimental: (§1) Ki values of inhibition of purified class A, C and D enzymes were determined spectrophotometrically using nitrocefin as reporter substrate. Purified enzymes were mixed with various concentrations of inhibitors in reaction buffer and incubated for 10 min at room temperature. Nitrocefin was added and substrate cleavage profiles were recorded at 490 nm every 10 sec for 10 min. These experiments confirmed that the described compounds are inhibitors with a broad-spectrum of activity towards various β-lactamases.

KPC-2 = KPC-2 (Klebsiella pneumoniae, UniProt Q9F663); test: Inhibition of nitrocefin cleavage by purified KPC-2; format: biochemical; details: nitrocefin reporter substrate; 10 min preincubation at room temperature; read-out: Ki (KPC-2, NCF)
Experimental: as §1

SHV-12 = SHV-12 (Klebsiella pneumoniae, UniProt P0AD64, E235K/G234S/L31Q); test: Inhibition of nitrocefin cleavage by purified SHV-12; format: biochemical; details: nitrocefin reporter substrate; 10 min preincubation at room temperature; read-out: Ki (SHV-12, NCF)
Experimental: as §1, with “min.” for “min. These experiments confirmed that the described compounds are inhibitors with a broad-spectrum of activity towards various β-lactamases.”

CTX-M-14 = CTX-M-14 (Escherichia coli, UniProt Q9L5C7); test: Inhibition of nitrocefin cleavage by purified CTX-M-14; format: biochemical; details: nitrocefin reporter substrate; 10 min preincubation at room temperature; read-out: Ki (CTX-M-14, NCF)
Experimental: as §1, with “min.” for “min. These experiments confirmed that the described compounds are inhibitors with a broad-spectrum of activity towards various β-lactamases.”

OXA-48 = OXA-48 (Klebsiella pneumoniae, UniProt Q6XEC0); test: Inhibition of nitrocefin cleavage by purified OXA-48; format: biochemical; details: nitrocefin reporter substrate; 10 min preincubation at room temperature; read-out: Ki (OXA-48, NCF)
Experimental: as §1

VIM-1 = VIM-1 (Pseudomonas aeruginosa, UniProt A0A0F7KYQ8); test: Inhibition of nitrocefin cleavage by purified VIM-1; format: biochemical; details: nitrocefin reporter substrate; 10 min preincubation at room temperature; read-out: Ki (VIM-1, NCF)
NDM-1 = NDM-1 (Klebsiella pneumoniae, UniProt C7C422); test: Inhibition of imipenem cleavage by purified NDM-1; format: biochemical; details: imipenem reporter substrate; 37° C.; read-out: Ki (NDM-1, IMI)
Experimental: Purified enzymes were mixed with various concentrations of inhibitors in reaction buffer and incubated for 10 min at room temperature. Imipenem was added and substrate cleavage profiles were recorded at 294 nm every 30 seconds for 30 minutes at 37° C.

IMP-1 = IMP-1 (Serratia marcescens, UniProt P52699); test: Inhibition of imipenem cleavage by purified IMP-1; format: biochemical; details: imipenem reporter substrate; 37° C.; read-out: Ki (IMP-1, IMI)
Experimental: Ki values of inhibition of purified class B enzymes NDM-1 and IMP-1 were determined spectrophotometrically using imipenem as reporter substrate. Purified enzymes were mixed with various concentrations of inhibitors in reaction buffer and incubated for 10 min at room temperature. Imipenem was added and substrate cleavage profiles were recorded at 294 nm every 30 seconds for 30 minutes at 37° C. These experiments further confirmed that the described compounds have the ability to inhibit carbapenemase activity of metallo-beta-lactamases.

Pa-AmpC = Pa-AmpC (Pseudomonas aeruginosa, UniProt P24735); test: biochemical; details: nitrocefin reporter substrate; 10 min preincubation at room temperature; read-out: Ki (Pa-AmpC, NCF)
Experimental: as §1, with “min.” for “min. These experiments confirmed that the described compounds are inhibitors with a broad-spectrum of activity towards various β-lactamases.”

P99 = P99 (Enterobacter cloacae, UniProt P05364); test: biochemical; details: nitrocefin reporter substrate; 10 min preincubation at room temperature; read-out: Ki (P99, NCF)
Experimental: as §1, with “min.” for “min. These experiments confirmed that the described compounds are inhibitors with a broad-spectrum of activity towards various β-lactamases.”

NDM-1, sequence (C7C422 29-270, looked up, species assumed): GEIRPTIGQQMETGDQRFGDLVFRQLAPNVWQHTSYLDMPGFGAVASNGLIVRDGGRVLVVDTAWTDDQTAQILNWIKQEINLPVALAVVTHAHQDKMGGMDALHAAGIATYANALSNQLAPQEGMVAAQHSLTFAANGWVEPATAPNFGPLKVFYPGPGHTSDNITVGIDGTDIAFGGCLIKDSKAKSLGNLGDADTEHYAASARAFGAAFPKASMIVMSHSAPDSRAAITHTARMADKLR
OXA-48, sequence (Q6XEC0 23-265, looked up): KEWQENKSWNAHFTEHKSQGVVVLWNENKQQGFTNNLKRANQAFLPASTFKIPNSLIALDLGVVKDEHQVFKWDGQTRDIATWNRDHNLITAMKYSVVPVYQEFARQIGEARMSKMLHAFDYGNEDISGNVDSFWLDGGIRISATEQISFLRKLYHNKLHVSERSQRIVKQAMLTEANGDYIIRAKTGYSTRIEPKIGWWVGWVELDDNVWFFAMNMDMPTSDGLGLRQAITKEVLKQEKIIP
CTX-M-14, sequence (Q9L5C7 29-291, species assumed): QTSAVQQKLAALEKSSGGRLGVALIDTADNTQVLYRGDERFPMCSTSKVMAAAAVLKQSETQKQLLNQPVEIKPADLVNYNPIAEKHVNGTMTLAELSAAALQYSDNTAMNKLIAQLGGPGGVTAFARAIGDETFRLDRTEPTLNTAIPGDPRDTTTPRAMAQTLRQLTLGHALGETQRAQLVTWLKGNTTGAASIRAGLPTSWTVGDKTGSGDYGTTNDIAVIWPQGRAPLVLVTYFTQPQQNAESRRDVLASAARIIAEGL
IMP-1, sequence (P52699 19-246, looked up, species assumed): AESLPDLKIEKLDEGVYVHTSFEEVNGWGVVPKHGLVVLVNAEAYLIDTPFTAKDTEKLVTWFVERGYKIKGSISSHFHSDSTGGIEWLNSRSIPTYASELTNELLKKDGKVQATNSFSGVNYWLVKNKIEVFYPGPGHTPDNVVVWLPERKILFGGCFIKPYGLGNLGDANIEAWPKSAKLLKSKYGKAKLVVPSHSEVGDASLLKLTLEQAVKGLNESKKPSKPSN
SHV-12, sequence (P0AD64 22-286 L31Q/G234S/E235K): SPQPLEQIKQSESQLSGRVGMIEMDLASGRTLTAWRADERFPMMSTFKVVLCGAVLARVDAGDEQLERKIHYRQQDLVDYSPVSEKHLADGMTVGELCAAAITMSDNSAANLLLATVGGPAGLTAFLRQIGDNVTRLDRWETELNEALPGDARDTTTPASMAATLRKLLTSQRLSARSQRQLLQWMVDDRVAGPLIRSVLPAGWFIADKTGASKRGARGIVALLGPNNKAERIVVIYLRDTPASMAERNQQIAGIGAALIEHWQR
Pa-AmpC, sequence (P24735 27-397): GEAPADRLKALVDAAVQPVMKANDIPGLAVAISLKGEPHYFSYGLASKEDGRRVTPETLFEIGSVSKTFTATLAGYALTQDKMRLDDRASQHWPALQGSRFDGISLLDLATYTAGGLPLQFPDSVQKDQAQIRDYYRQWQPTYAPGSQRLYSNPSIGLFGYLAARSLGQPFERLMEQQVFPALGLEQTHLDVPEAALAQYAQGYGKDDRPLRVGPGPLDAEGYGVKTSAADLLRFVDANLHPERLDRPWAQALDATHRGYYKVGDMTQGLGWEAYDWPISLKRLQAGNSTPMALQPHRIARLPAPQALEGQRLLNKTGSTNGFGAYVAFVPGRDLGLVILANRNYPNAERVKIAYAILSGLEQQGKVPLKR
P99, sequence (P05364 21-381): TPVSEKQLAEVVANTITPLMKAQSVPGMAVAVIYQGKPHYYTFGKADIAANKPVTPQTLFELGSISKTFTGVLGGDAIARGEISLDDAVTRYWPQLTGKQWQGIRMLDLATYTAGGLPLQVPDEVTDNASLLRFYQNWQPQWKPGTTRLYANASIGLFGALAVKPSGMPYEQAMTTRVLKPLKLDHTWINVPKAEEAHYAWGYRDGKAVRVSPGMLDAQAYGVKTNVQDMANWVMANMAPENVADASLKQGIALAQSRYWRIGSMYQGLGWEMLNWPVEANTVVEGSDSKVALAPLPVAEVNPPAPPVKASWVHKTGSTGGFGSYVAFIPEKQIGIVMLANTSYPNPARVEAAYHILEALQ
OXA-23, sequence (Q9L4P2 18-273): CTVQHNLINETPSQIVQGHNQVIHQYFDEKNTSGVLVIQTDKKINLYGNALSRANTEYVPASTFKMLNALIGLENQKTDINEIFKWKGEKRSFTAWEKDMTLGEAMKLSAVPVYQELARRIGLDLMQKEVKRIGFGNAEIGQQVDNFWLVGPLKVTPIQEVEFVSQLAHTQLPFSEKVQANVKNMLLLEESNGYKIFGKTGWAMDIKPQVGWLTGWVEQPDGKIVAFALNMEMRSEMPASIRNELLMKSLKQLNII
KPC-2, sequence (Q9F663 25-293 limits assumed): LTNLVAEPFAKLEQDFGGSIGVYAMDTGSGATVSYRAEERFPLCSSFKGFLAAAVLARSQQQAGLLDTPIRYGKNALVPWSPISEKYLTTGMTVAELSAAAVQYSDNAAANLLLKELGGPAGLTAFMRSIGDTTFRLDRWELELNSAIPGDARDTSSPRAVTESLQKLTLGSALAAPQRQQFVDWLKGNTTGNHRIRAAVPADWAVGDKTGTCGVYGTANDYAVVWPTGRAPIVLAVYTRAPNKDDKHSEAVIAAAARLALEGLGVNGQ

Row | % of initial area ratio at t = 0 min [1] [%] | % of initial area ratio at t = 5 min [1] [%] | % of initial area ratio at t = 10 min [1] [%] | % of initial area ratio at t = 30 min [1] [%] | SMILES | Average % of initial area ratio at t = 0 min [2] [%] | Average % of initial area ratio at t = 5 min [2] [%] | Average % of initial area ratio at t = 10 min [2] [%] | Average % of initial area ratio at t = 30 min [2] [%] | half-life at 1 μM [2] [min] | Ki (OXA-23) [nM] | Ki (KPC-2) [nM] | Ki (SHV-12) [nM] | Ki (CTX-M-14) [nM] | Ki (OXA-48) [nM] | Ki (VIM-1) [nM] | Ki (NDM-1) [nM] | Ki (IMP-1) [nM] | Ki (Pa-AmpC) [nM] | Ki (P99) [nM]
1 | 100 | 58.6 | 34.5 | 2.9 | COCC(=O)OCOC(=O)c1c(F)ccc2c1OB(O)[C@@H]1C[C@H]21 [Compound 43, (2-Methoxyacetyl)oxymethyl (1aR,7bS)-5-fluoro-2-hydroxy-1a,7b-dihydro-1H-cyclopropa[c][1,2]benzoxaborinine-4-carboxylate] | 100 | 64.4 | 44.6 | 0.6 | 4 |  |  |  |  |  |  |  |  |  | 
2 |  |  |  |  | COc1ccc2c(c1C(=O)O)OB(O)C1C2[C@H]2C=C[C@@H]1C2 (stereo partly drawn) [Compound 6, (7R,10R)-6-hydroxy-3-methoxy-6a,7,10,10a-tetrahydro-6H-7,10-methanodibenzo[c,e][1,2]oxaborinine-4-carboxylic acid] |  |  |  |  |  | 100 to 1000 | < 100 | 100 to 1000 | > 1000 | < 100 | 100 to 1000 | > 1000 | > 1000 | < 100 | < 100
3 |  |  |  |  | COc1ccc2c(c1C(=O)O)OB(O)CC21CC1 [Compound 11, 2-hydroxy-7-methoxy-spiro[3H-1,2-benzoxaborinine-4,1′-cyclopropane]-8-carboxylic acid] |  |  |  |  |  | < 100 | < 100 | < 100 | < 100 | < 100 | 100 to 1000 | < 100 | 100 to 1000 | < 100 | < 100
4 |  |  |  |  | COc1ccc2c(c1C(=O)O)OB(O)C1C2[C@H]2CC[C@@H]1C2 (stereo partly drawn) [Compound 7, (7R,10S)-6-hydroxy-3-methoxy-6a,7,8,9,10,10a-hexahydro-6H-7,10-methanodibenzo[c,e][1,2]oxaborinine-4-carboxylic acid] |  |  |  |  |  | < 100 | < 100 | 100 to 1000 | < 100 | < 100 | < 100 | < 100 | < 100 | < 100 | < 100
5 | 100 | 48.4 | 15.4 | 0 | Cc1oc(=O)oc1COC(=O)c1c(F)ccc2c1OB(O)[C@@H]1C[C@H]21 [Compound 33, (5-Methyl-2-oxo-1,3-dioxol-4-yl)methyl (1aR,7bS)-5-fluoro-2-hydroxy-1a,7b-dihydro-1H-cyclopropa[c][1,2]benzoxaborinine-4-carboxylate] |  |  |  |  |  |  |  |  |  |  |  |  |  |  | 
6 |  |  |  |  | O=C(O)c1cccc2c1OB(O)C1CC21 (stereo not shown) [Compound 10, 2-Hydroxy-1a,7b-dihydro-1H-cyclopropa[c][1,2]benzoxaborinine-4-carboxylic acid] |  |  |  |  |  | < 100 | < 100 | < 100 | < 100 | < 100 | < 100 | < 100 | 100 to 1000 | < 100 | < 100
7 | 100 | 69.3 | 59.4 | 41.1 | O=C(OCOC(=O)C1CCOCC1)c1c(F)ccc2c1OB(O)[C@@H]1C[C@H]21 [Compound 39, Tetrahydropyran-4-carbonyloxymethyl (1aR,7bS)-5-fluoro-2-hydroxy-1a,7b-dihydro-1H-cyclopropa[c][1,2]benzoxaborinine-4-carboxylate] |  |  |  |  |  |  |  |  |  |  |  |  |  |  | 
8 | 100 | 86.8 | 77.2 | 38.7 | O=C(OCOC(=O)c1c(F)ccc2c1OB(O)[C@@H]1C[C@H]21)OC1COC1 [Compound 32, Oxetan-3-yloxycarbonyloxymethyl (1aR,7bS)-5-fluoro-2-hydroxy-1a,7b-dihydro-1H-cyclopropa[c][1,2]benzoxaborinine-4-carboxylate] |  |  |  |  |  |  |  |  |  |  |  |  |  |  | 

Row | SMILES | % of initial area ratio at t = 0 min [1] [%] | % of initial area ratio at t = 5 min [1] [%] | % of initial area ratio at t = 10 min [1] [%] | % of initial area ratio at t = 30 min [1] [%] | Average % of initial area ratio at t = 0 min [2] [%] | Average % of initial area ratio at t = 5 min [2] [%] | Average % of initial area ratio at t = 10 min [2] [%] | Average % of initial area ratio at t = 30 min [2] [%] | half-life at 1 μM [2] [min] | Ki (OXA-23) [nM] | Ki (KPC-2) [nM] | Ki (SHV-12) [nM] | Ki (CTX-M-14) [nM] | Ki (OXA-48) [nM] | Ki (VIM-1) [nM] | Ki (NDM-1) [nM] | Ki (IMP-1) [nM] | Ki (Pa-AmpC) [nM] | Ki (P99) [nM]
9 | CC(=O)OCC(=O)OCOC(=O)c1c(F)ccc2c1OB(O)[C@@H]1C[C@H]21 [Compound 42, (2-Acetoxyacetyl)oxymethyl (1aR,7bS)-5-fluoro-2-hydroxy-1a,7b-dihydro-1H-cyclopropa[c][1,2]benzoxaborinine-4-carboxylate] | 100 | 29.1 | 8.1 | 0 | 100 | 27.1 | 10.3 | 0.4 | 4 |  |  |  |  |  |  |  |  |  | 
